91 molecules from a melting point compilation (Tetko et al.; mined from patent text by program, amines drawn as free bases though some values may be those of a salt) can be followed below.

The melting point is the temperature, or range, at which the solid turns liquid.

SMILES strings stand for the structures.

`COc1ccc(CCOc2ccnc(-c3cccc(C(=O)O)c3)n2)cc1OC` gave a melting point of 193 to 194 °C. The molecule `c1ccc(CCC2CCN(Cc3n[nH]c4ccccc34)CC2)cc1` registered a melting point of 153 to 155 °C. The molecule `O=C1c2ccccc2C(=O)N1CCCN1CCN(c2ccccc2)CC1` yielded a melting point of 105 to 122 °C.

`O=C(C=Cc1ccccc1)SC(Cn1ccnc1)c1ccc(Cl)cc1Cl` (stereo unspecified): the melting point was 139 to 141 °C. `CC(=O)Nc1nc2c(Oc3cc(-c4ccc(C(F)(F)F)cc4NC(=O)CC4CCCCC4)ncn3)cccc2s1`: the melting point lay within 288 to 289 °C. In the case of `COc1cc(/C=C/C(=O)Nc2ccccc2C(=O)O)ccc1OCC1CCCCC1`, the melting point lay within 207 to 210 °C. In turn, `CN(SC1(C)CCCC1=O)C(=O)ON=C1SC(C)(C)C(=O)N1C` (stereo unspecified) showed a melting point of 119 to 121 °C.

The molecule `Cc1ccc(-c2ccc(S(C)(=O)=O)cc2)n1-c1ccc(-c2ccoc2)cc1` had a melting point of 200 to 202 °C. `CNC(=O)c1ccc(C=CC(=O)Nc2cccc(-c3ccc(C)c(CCl)c3C)c2)cc1` yielded a melting point of 236 to 244 °C. On to `N#Cc1c(Cl)[nH]c(Cl)c1Cl`, for which the melting point is greater than 300 °C. Take `CCCC(C)n1sc2ccccc2c1=O` (stereo unspecified): the melting point fell in the range of 52 to 54 °C.

As to `COc1ccc(-c2cnn(-c3cccc(C(=O)O)c3)c2)cc1`, the melting point lay within 238 to 239 °C. The molecule `c1cnc(N2CCN(Cc3n[nH]c4ccccc34)CC2)nc1` came in with a melting point of 129 to 130 °C. With `CCOc1cn(C2CC(O)C(CO)O2)c(=O)[nH]c1=O` (stereo unspecified), the melting point fell in the range of 179 to 181 °C. For `COc1nc(C)cnc1NS(=O)(=O)c1cccnc1-c1ccc(COC(C)C)cc1` the value was 123 to 124 °C. `CC(C)(C)NCC(COc1cccc2c1CC(=O)N2)OC(=O)C=Cc1ccccc1` (stereo unspecified) yielded a melting point of 128 to 132 °C. As to `COc1ccc(NCCCCCNC(C)=O)c2c1C(=O)c1ccccc1C2=O`, the melting point fell in the range of 145 to 147 °C. For `Nc1nc2c(sc(=O)n2CC(O)CO)c(=O)[nH]1` (stereo unspecified) the value was 248 to 254 °C. The molecule `O=S(=O)(Cc1ccccc1)c1c(Cl)nc(Cl)nc1Cl` came in with a melting point of 160 to 162 °C. Molecule `CCOC(=O)Cc1cc(C)c(C(=O)c2ccccc2)n1C` came in with a melting point of 78 to 80 °C. Molecule `O=C1CCC(N2Cc3c(CNC(=O)c4ccc(Cl)c(Cl)c4)cccc3C2=O)C(=O)N1` (stereo unspecified) came in with a melting point greater than 260 °C.

In the case of `COc1ccc(C2=NN(C(C)C)C(=O)[C@H]3CCCC[C@@H]23)cc1OC` (relative stereo), the melting point was in the range of 79 to 81 °C.

For the molecule `CCCCC(CC)COc1ccc(C=C2C(=O)C3CCN2CC3)cc1` (stereo unspecified), the melting point amounted to 37 °C. For `NS(=O)(=O)c1ccc(-c2cc(-c3c[nH]nc3-c3ccccn3)ccc2F)cc1` the value was 128 °C.

The molecule `O=C(NCCCN1CCN(Cc2ccc(Cl)cc2)CC1)NC1CCCCC1` gave a melting point of 109 to 112 °C. For `CCOC(=O)c1cc(=O)c2cc3c(c(CC(O)CO)c2o1)CCCC3` (stereo unspecified) the value was 142 to 144 °C; for `O=CN1CCC23CC(=O)CCC2C1Cc1cccc(O)c13` (stereo unspecified), 260 to 262 °C. The value for `CCCn1cc(-c2ccncc2)cc(N)c1=O` was 171 to 173 °C; that for `COc1ccc([C@@H]2Cc3cc(OC)ccc3NC(=O)[C@@H]2O)cc1` was 171 to 173 °C. In turn, `CCC(Cc1ccc(OC)c(CC(=O)Nc2ccc(C(F)(F)F)cc2)c1)C(=O)O` (stereo unspecified) had a melting point of 136 to 137 °C.

`Cc1cc(Cl)cc(C(=O)NC(C)C)c1NC(=O)c1cc(Br)nn1N1C=CC=C(Cl)C1` registered a melting point of 159 to 161 °C.

On to `Cc1c(C)c2c(c(C)c1OCc1ccccc1)CC[C@@](C)(CCO)O2`, for which the melting point fell in the range of 55 to 56 °C.

`N#Cc1ccc(C(=C2CCCC2)c2nc[nH]n2)cc1`: the melting point is 72 °C. Molecule `O=C1Nc2ccc(F)cc2C(C#CC2CC2)(C(F)(F)F)N1` (racemic) came in with a melting point of 155 °C. In turn, `CCOC(=O)CC(=O)c1ccc(CCNC(C)=O)cc1` had a melting point of 89 to 92 °C. For the molecule `O=C(O)c1cn(-c2ccc(F)cc2)c2c(F)c(F)c(F)cc2c1=O`, the melting point was 261 to 263 °C. Take `COc1cc(CCCCC2OC(=O)NC2=O)ccc1OCc1ccccc1` (stereo unspecified): the melting point was 92 to 93 °C. Take `O=C1Nc2cc(Cl)ccc2C(=O)C1c1cccs1` (stereo unspecified): the melting point lay in the range of 305 to 307 °C. The value for `CCCC(C)(C)c1nsc(N=CN(C)C)c1C#N` was 65 to 67 °C; that for `OC(Cn1cncn1)c1ccc(-c2ccc(Cl)cc2)cc1` (stereo unspecified) was 199 °C. The value for `COC(=O)C(Cc1cc(OC)cc(C(F)(F)F)c1)NC(=O)c1ccccc1` (stereo unspecified) was 133 °C. Molecule `CNC(=O)c1cn(C)c(=O)cc1Nc1ccc(I)cc1F` registered a melting point of 252 to 254 °C. As to `CCS(=O)(=O)Cc1c(Cl)c(Cl)cc2nc(OC)c(OC)nc12`, the melting point lay within 150 to 152 °C. Regarding `CCCCc1nc2ncccc2[nH]1`, the melting point worked out at 80 °C. On to `Cc1cc2c(-c3ccccc3)c(NC(=O)NCc3ccccc3N)n(C)c(=O)c2cc1C`, for which the melting point amounted to 218 °C.

`CC1(C)CCCC(N=[N+]=[N-])C(=O)N1` (stereo unspecified) registered a melting point of 98 to 100 °C. For `CC(C)(C)CCc1nn(-c2ccc(F)cc2F)c2c1C1CCC2C1` (stereo unspecified) the value was 54 to 57 °C; for `CC(C)(NC(=O)CCn1cnc(C=O)c1)c1ccc(Cl)cc1`, 151 to 153 °C; for `Nc1onc(C(F)(F)F)c1-c1ccccc1`, 89 to 91 °C. On to `CCN(CC)Cc1nc2sc3c(c2c(-c2ccc(OC)c(OC)c2)c1Cl)CCN(Cc1ccccc1)C3`, for which the melting point was in the range of 150 to 151 °C. Take `CCNC(=O)c1c([Si](C)(C)C)ccc(C)c1Cl`: the melting point is 120 to 122 °C. The value for `O=S1(=O)NCN(CCF)c2cc(Cl)c(Br)cc21` was 159 to 162 °C; that for `CCCc1nc2c(N)nc3ccc(-c4cccc(CN)c4)cc3c2s1` was 189 to 191 °C. For `COC(=O)c1ccccc1Nc1cccc(N2N=CN(C)N2)c1` the value was 106 to 108 °C; for `COc1cccc(-n2c(-c3ccccc3)cc(=O)c(C)c2-c2ccccc2)c1`, 183 to 185 °C; for `CCc1cc(F)cc2c1OCC(C)(C)CC2(O)c1ccccn1` (stereo unspecified), 100 °C.

The molecule `Cc1cc(C2CCN(S(=O)(=O)C3(C(=O)NO)CCOCC3)CC2)ccc1-c1cccc(OCCO)n1` displayed a melting point of 193 to 194 °C. The value for `CCn1nnc(NC(=O)C(c2ccccc2)c2ccccc2)n1` was 169 to 170 °C. On to `CCOC(=O)c1ccc(C#Cc2ccc3c(c2)C(C)(C)CCC3(C)C)cc1`, for which the melting point was in the range of 137 to 138 °C. For `CCOC(=O)C(C)(C(=O)OCC)C(=O)c1cc([N+](=O)[O-])cc(Br)c1Cl` the value was 75 to 76.5 °C. Molecule `Cc1nccn1-c1ccc(N)cc1C(F)(F)F` had a melting point of 117 to 119 °C.

In turn, `Cc1ccccc1COc1cccnc1NC(=S)Nc1ccc(Cl)cc1` yielded a melting point of 181 to 183 °C. Molecule `Cc1ccc(-c2cc(NC(=O)C3Cc4ccccc4C3)n[nH]2)cc1` came in with a melting point of 220 to 225 °C.

For `CCNc1nc(C(C)C)nc(Cl)c1[N+](=O)[O-]`, the melting point is 50 °C. In turn, `Cc1cc(Nc2ccccc2C(=O)N2CCCCC2)ccn1` showed a melting point of 93 to 95 °C. For `CCN(CC)C(=O)c1nn(-c2ccc(OC(F)(F)F)cc2)c2cccc(F)c2c1=O` the value was 118 °C; for `CCOC(=O)CC1CN=C(c2cc3cccc(N(C)S(=O)(=O)c4cccs4)c3[nH]2)S1` (stereo unspecified), 101 to 102 °C. `COc1ccc([N+](=O)[O-])cc1OCCO` gave a melting point of 115 °C. Molecule `O=c1[nH]nc2n1CCc1ccccc1C2` had a melting point of 253 to 261 °C.

In turn, `CCn1nnn(-c2cc(OCOC)c(Cl)cc2Cl)c1=O` registered a melting point of 112 to 113 °C. The molecule `CC(=O)c1ccc(Cl)c(S(N)(=O)=O)c1` displayed a melting point of 175 to 176 °C. `COc1ccc(NC(=O)C(C)(C)c2ccc(S(=O)(=O)/C=C/C#N)cc2)cc1` registered a melting point of 123 to 126 °C. The value for `CN1CCN(S(=O)(=O)Nc2ccc(-c3nc(-c4ccc(F)cc4)c(-c4ccncc4)[nH]3)cc2)CC1` was 74 to 76 °C.

`COc1ccc(COc2ccc(C=C(C=O)C(C=O)=Cc3ccc(OCc4ccc(OC)cc4)cc3)cc2)cc1` displayed a melting point of 218 to 220 °C.

In turn, `COC(=O)c1cc(C(=O)NCC(C)(C)C)ccc1-c1cc(C(=O)OC(C)(C)C)cc(F)c1C` had a melting point of 68 to 74 °C. The value for `O=C1c2c(Cl)c(Cl)c(Cl)c(Cl)c2C(=O)N1c1ccccc1` was 251 to 253 °C; that for `COC(=O)C1=C(C)NC(C)=C(P(=O)(OC(C)C)OC(C)C)C1c1cccc([N+](=O)[O-])c1` (stereo unspecified) was 205 to 207 °C; that for `Cc1cc(-c2nc3ccc(CN4CCOCC4)cc3c(=O)[nH]2)ccn1` was 267 to 268 °C. In the case of `Cc1ccc(S(=O)(=O)N2CCCC2c2ccc(F)cc2)cc1` (racemic), the melting point was 128 °C. The molecule `CCc1oc2ccc([N+](=O)[O-])cc2c1C(=O)c1ccc(OC)cc1` gave a melting point of 130 °C. Molecule `COCCN1CC(C(=O)OC)N(S(=O)(=O)c2ccc(OC)cc2)Cc2ccccc21` (stereo unspecified) came in with a melting point of 86 to 90 °C.

For `c1ccc(-c2nc(-c3ccccc3)c(-c3ccccc3)s2)cc1`, the melting point lay within 84 to 85.5 °C.

In turn, `CCCCN1C(=O)c2cncnc2Nc2ccccc21` showed a melting point of 145 to 147 °C. As for `COc1cc2c(cc1OC)N(C(C)=O)CC(N(C)C)C2` (stereo unspecified), the melting point fell in the range of 145 to 147 °C.

The molecule `Cc1c(C(N)=O)oc2ccc(Cc3cccnc3)cc12` displayed a melting point of 175 to 177 °C. The molecule `COc1ccc(S(=O)(=O)Nc2ccccc2NC(=O)c2ccco2)cc1` registered a melting point of 158 to 159 °C.

On to `CC(Nc1ccc(Cc2ccccc2)cc1)C(=O)O` (stereo unspecified), for which the melting point came out at 119 °C. The value for `O=C(CCCCCNC(=O)Cc1ccc(-c2ccccc2)cc1)NO` was 226 to 227 °C. For `COC(=O)C(C)Oc1ccc(Oc2ncc(Cl)cc2F)cc1` (stereo unspecified) the value was 58 to 59 °C. In turn, `C#CCn1ccc(CO)c1C#N` registered a melting point of 65 °C. For `COc1cc(F)c(-c2nn(C)c(C(F)(F)F)c2Cl)cc1[N+](=O)[O-]` the value was 116 °C.
